According to PubChem BioAssay AID248 (DTP/NCI, 2004):
Several values for one entry are separate records, joined by “and”; a condition that tells them apart may be missing. Identical values can stand only once. Toxic doses and inconclusive results are not listed.

Test system: L1210 leukemia ip in BDF1 mice, survival T/C
Experiment: NCI In Vivo Anticancer Drug Screen. Data for tumor model L1210 Leukemia (intraperitoneal) in B6D2F1 (BDF1) mice
Conditions: endpoint: mean survival time, higher = longer survival
Outline: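 Survival endpoint. Drug-treated group vs vehicle group, expressed as T divided by C. Tumor passaged by transplantation.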

[1] = dose: 100.0 mg/kg/injection, schedule: Q01DX009 (ip), vehicle: saline
[2] = dose: 200.0 mg/kg/injection, schedule: Q01DX009 (ip), vehicle: saline
[3] = dose: 400.0 mg/kg/injection, schedule: Q01DX009 (ip), vehicle: saline
[4] = dose: 100.0 mg/kg/injection, schedule: Q04DX003 (ip), vehicle: saline
[5] = dose: 200.0 mg/kg/injection, schedule: Q04DX003 (ip), vehicle: saline
[6] = dose: 400.0 mg/kg/injection, schedule: Q04DX003 (ip), vehicle: saline
[7] = dose: 100.0 mg/kg/injection, schedule: Q04DX003 (ip), vehicle: Klucel (hydroxypropylcellulose) (HPC)
[8] = dose: 200.0 mg/kg/injection, schedule: Q04DX003 (ip), vehicle: Klucel (hydroxypropylcellulose) (HPC)
[9] = dose: 100.0 mg/kg/injection, schedule: Q01DX009 (ip), vehicle: Klucel (hydroxypropylcellulose) (HPC)
[10] = dose: 100.0 mg/kg/injection, schedule: Q01DX009 (ip), vehicle: saline with Tween-80
[11] = dose: 200.0 mg/kg/injection, schedule: Q01DX009 (ip), vehicle: saline with Tween-80
[12] = dose: 400.0 mg/kg/injection, schedule: Q01DX009 (ip), vehicle: saline with Tween-80

SMILES: O=C(CNC(=O)c1ccc(C(=O)NCC(=O)Nc2ccc(C3=NCCCN3)cc2)cc1)Nc1ccc(C2=NCCCN2)cc1
- T/C (dose: 0.62 mg/kg/injection, schedule: Q01DX015 (ip), vehicle: methylcellulose (MC)): 101 % of control
- T/C (dose: 1.25 mg/kg/injection, schedule: Q01DX009 (ip), vehicle: saline): 97 % of control
- T/C (dose: 1.25 mg/kg/injection, schedule: Q01DX015 (ip), vehicle: methylcellulose (MC)): 98 % of control
- T/C (dose: 2.5 mg/kg/injection, schedule: Q01DX009 (ip), vehicle: saline): 110 % of control
- T/C (dose: 2.5 mg/kg/injection, schedule: Q01DX015 (ip), vehicle: methylcellulose (MC)): 98 % of control
- T/C (dose: 3.75 mg/kg/injection, schedule: Q01DX015 (ip), vehicle: methylcellulose (MC)): 116 % of control
- T/C (dose: 10.0 mg/kg/injection, schedule: Q01DX009 (ip), vehicle: saline): 113 % of control
- T/C (dose: 20.0 mg/kg/injection, schedule: Q01DX015 (ip), vehicle: methylcellulose (MC)): 229 % of control
- T/C (dose: 25.0 mg/kg/injection, schedule: Q01DX001 (ip), vehicle: methylcellulose (MC)): 106 % of control
- T/C (dose: 30.0 mg/kg/injection, schedule: Q01DX015 (ip), vehicle: methylcellulose (MC)): 186 % of control
- T/C (dose: 40.0 mg/kg/injection, schedule: Q01DX009 (ip), vehicle: saline): 153 % of control
- T/C (dose: 40.0 mg/kg/injection, schedule: Q01DX015 (ip), vehicle: methylcellulose (MC)): 191 % of control
- T/C (dose: 50.0 mg/kg/injection, schedule: Q01DX001 (ip), vehicle: methylcellulose (MC)): 113 % of control
- T/C (dose: 60.0 mg/kg/injection, schedule: Q01DX009 (ip), vehicle: Klucel (hydroxypropylcellulose) (HPC)): 256 % of control
- T/C (dose: 80.0 mg/kg/injection, schedule: Q01DX009 (ip), vehicle: Klucel (hydroxypropylcellulose) (HPC)): 300 % of control
- T/C (dose: 120.0 mg/kg/injection, schedule: Q01DX009 (ip), vehicle: Klucel (hydroxypropylcellulose) (HPC)): 115 % of control
- T/C (dose: 160.0 mg/kg/injection, schedule: Q01DX009 (ip), vehicle: Klucel (hydroxypropylcellulose) (HPC)): 102 % of control

SMILES: Nc1nc(N)c(N=Nc2ccc(S(N)(=O)=O)cc2)cc1N=Nc1ccccc1
- T/C (dose: 100.0 mg/kg/injection, schedule: Q01DX001 (ip), vehicle: carboxymethylcellulose (CMC)): 94 % of control
- T/C (dose: 200.0 mg/kg/injection, schedule: Q01DX001 (ip), vehicle: carboxymethylcellulose (CMC)): 94 % of control
- T/C (dose: 400.0 mg/kg/injection, schedule: Q01DX001 (ip), vehicle: carboxymethylcellulose (CMC)): 100 % of control

SMILES: O=C(COc1ccc(Cl)c(Cl)c1)NCc1cc[n+](Cc2ccc(S(=O)(=O)F)cc2)cc1
- T/C (dose: 100.0 mg/kg/injection, schedule: Q01DX001 (ip), vehicle: Klucel (hydroxypropylcellulose) (HPC)): 95 % of control
- T/C (dose: 200.0 mg/kg/injection, schedule: Q01DX001 (ip), vehicle: Klucel (hydroxypropylcellulose) (HPC)): 95 % of control

SMILES: O=S1(=O)CC(S(=O)(=O)O)C(S(=O)(=O)O)C1 (centres undefined)
- T/C (dose: 50.0 mg/kg/injection, schedule: Q01DX009 (ip), vehicle: saline): 110 % of control
- T/C [1]: 103 % of control
- T/C [2]: 99 % of control
- T/C [3]: 93 % of control

SMILES: CC12C=CC(=O)C=C1CCC1C2C(O)CC2(C)C1CCC2(O)C(=O)CSc1ncnc2nc[nH]c12 (centres undefined)
- T/C (dose: 60.0 mg/kg/injection, schedule: Q01DX015 (ip), vehicle: saline): 92 % of control
- T/C (dose: 90.0 mg/kg/injection, schedule: Q01DX015 (ip), vehicle: saline): 100 % of control
- T/C (dose: 100.0 mg/kg/injection, schedule: Q01DX001 (sc), vehicle: steriod suspending solution): 112 % of control
- T/C (dose: 135.0 mg/kg/injection, schedule: Q01DX015 (ip), vehicle: saline): 92 % of control
- T/C (dose: 200.0 mg/kg/injection, schedule: Q01DX001 (sc), vehicle: steriod suspending solution): 112 % of control
- T/C (dose: 200.0 mg/kg/injection, schedule: Q01DX015 (ip), vehicle: saline): 92 % of control
- T/C (dose: 400.0 mg/kg/injection, schedule: Q01DX001 (sc), vehicle: steriod suspending solution): 97 % of control

SMILES: CCSC1C(OC(C)=O)C(C(CI)OC(C)=O)OC1n1cc(C)c(=O)[nH]c1=O (centres undefined)
- T/C (dose: 100.0 mg/kg/injection, schedule: Q01DX005 (ip), vehicle: saline): 93 % of control
- T/C (dose: 200.0 mg/kg/injection, schedule: Q01DX005 (ip), vehicle: saline): 98 % of control

SMILES: CC12CCCCC1CC/C(=C\c1ccco1)C2=O (centres undefined)
- T/C [1]: 98 % of control
- T/C [4]: 97 % of control
- T/C [2]: 98 % of control
- T/C [5]: 100 % of control
- T/C [3]: 95 % of control
- T/C [6]: 100 % of control

SMILES: Cc1ccc(OCc2c(COc3ccc(Cl)cc3)sc3ccc(Cl)cc23)cc1
- T/C (dose: 12.5 mg/kg/injection, schedule: Q01DX009 (ip), vehicle: saline with Tween-80): 97 % of control
- T/C (dose: 25.0 mg/kg/injection, schedule: Q01DX009 (ip), vehicle: saline with Tween-80): 95 % of control
- T/C (dose: 25.0 mg/kg/injection, schedule: Q04DX003 (ip), vehicle: saline with Tween-80): 87 % of control
- T/C (dose: 50.0 mg/kg/injection, schedule: Q01DX009 (ip), vehicle: saline with Tween-80): 101 % of control
- T/C (dose: 50.0 mg/kg/injection, schedule: Q04DX003 (ip), vehicle: saline with Tween-80): 87 % of control

SMILES: CCOc1ncc([N+](=O)[O-])c(OCC)n1
- T/C (dose: 50.0 mg/kg/injection, schedule: Q01DX001 (ip), vehicle: saline): 103 % of control
- T/C (dose: 100.0 mg/kg/injection, schedule: Q01DX001 (ip), vehicle: saline): 106 % of control
- T/C (dose: 200.0 mg/kg/injection, schedule: Q01DX001 (ip), vehicle: saline): 103 % of control
- T/C (dose: 400.0 mg/kg/injection, schedule: Q01DX001 (ip), vehicle: saline): 100 % of control

SMILES: c1ccc2c(CCNC3=NCCO3)c[nH]c2c1
- T/C (dose: 50.0 mg/kg/injection, schedule: Q04DX002 (ip), vehicle: saline with Tween-80): 91 % of control
- T/C (dose: 100.0 mg/kg/injection, schedule: Q04DX002 (ip), vehicle: saline with Tween-80): 91 % of control
- T/C [7]: 94 % of control
- T/C [8]: 108 % of control
- T/C (dose: 400.0 mg/kg/injection, schedule: Q04DX003 (ip), vehicle: Klucel (hydroxypropylcellulose) (HPC)): 94 % of control

SMILES: CSC(=S)N(C)C
- T/C (dose: 25.0 mg/kg/injection, schedule: Q01DX009 (ip), vehicle: Klucel (hydroxypropylcellulose) (HPC)): 90 % of control
- T/C (dose: 50.0 mg/kg/injection, schedule: Q01DX009 (ip), vehicle: Klucel (hydroxypropylcellulose) (HPC)): 108 % of control
- T/C [9]: 97 % of control and 102 % of control
- T/C [7]: 100 % of control
- T/C [8]: 93 % of control

SMILES: Cc1cccc(/C(=C/c2ccc([N+](=O)[O-])cc2)C(=O)Nc2ccc(S(=O)(=O)F)cc2)c1
- T/C [10]: 96 % of control
- T/C [11]: 97 % of control
- T/C [12]: 96 % of control

SMILES: c1ccc(P(=NC2CCCCC2)(c2ccccc2)c2ccccc2)cc1
- T/C (dose: 50.0 mg/kg/injection, schedule: Q04DX003 (ip), vehicle: acetone): 96 % of control
- T/C (dose: 100.0 mg/kg/injection, schedule: Q04DX003 (ip), vehicle: acetone): 94 % of control

SMILES: Cc1ccc([N+](=O)[O-])cc1NC(=O)C(Cl)(Cl)Cl
- T/C [10]: 94 % of control
- T/C [11]: 98 % of control
- T/C [12]: 100 % of control

SMILES: COC(=O)c1cccc2c1-c1ccccc1C2=O
- T/C (dose: 100.0 mg/kg/injection, schedule: Q01DX001 (ip), vehicle: other): 92 % of control
- T/C (dose: 200.0 mg/kg/injection, schedule: Q01DX001 (ip), vehicle: other): 88 % of control
- T/C (dose: 400.0 mg/kg/injection, schedule: Q01DX001 (ip), vehicle: other): 97 % of control

SMILES: CCN(CC)CCSc1ccnc2cc(Cl)ccc12
- T/C [4]: 94 % of control
- T/C [5]: 96 % of control
- T/C [6]: 100 % of control

SMILES: Cc1cc(C)c(S(=O)(=O)Nc2cc(C)ccc2C)c(C)c1
- T/C [9]: 100 % of control
- T/C (dose: 200.0 mg/kg/injection, schedule: Q01DX009 (ip), vehicle: Klucel (hydroxypropylcellulose) (HPC)): 96 % of control
- T/C (dose: 400.0 mg/kg/injection, schedule: Q01DX009 (ip), vehicle: Klucel (hydroxypropylcellulose) (HPC)): 100 % of control

SMILES: CCOC(=O)NC(=S)[S][Sb]([S]C(=S)NC(=O)OCC)[S]C(=S)Nc1ccc(S(=O)(=O)Nc2ccc(N=Nc3ccccc3)cc2)cc1
- T/C (dose: 100.0 mg/kg/injection, schedule: Q01DX001 (ip), vehicle: steriod suspending solution): 103 % of control
- T/C (dose: 400.0 mg/kg/injection, schedule: Q01DX001 (ip), vehicle: steriod suspending solution): 106 % of control
